Test results as given in ChEMBL document CHEMBL1158672, “Rubrobramide, a cytotoxic and phytotoxic metabolite from Cladobotyrum rubrobrunnescens” (1998).
In brackets after ≈: the same amount, converted by molar mass. Activity calls are given as the source filed them. The rule behind the calls is not given here.

How the values were obtained:
[1] = tested on: Meloidogyne incognita; assay: Nematicidal activity against Meloidogyne incognita; assay type: functional; conditions: read-out: LD50 (the source's name)
[2] = tested on: Meloidogyne incognita; assay: Nematicidal activity against Meloidogyne incognita up to 100 ug/mL; assay type: functional, organism-based
[3] = tested on: HL-60; assay: Cytotoxicity against human HL60 cells up to 100 ug/mL; assay type: functional, cell-based
[4] = tested on: HeLa S3; assay: Cytotoxicity against human HeLaS3 cells up to 100 ug/mL; assay type: functional, cell-based
[5] = tested on: L1210; assay: Antiproliferative activity against mouse L1210 cells at 50 ug/mL; assay type: functional
[6] = tested on: Lepidium sativum; assay: Phytotoxicity against Lepidium sativum assessed as inhibition of seedling germination at 100 ug/mL; assay type: functional; set-up: scale not given: the % may be the effect or the level left
[7] = tested on: Setaria italica; assay: Phytotoxicity against Setaria italica assessed as inhibition of seedling germination at 100 ug/mL; assay type: functional; set-up: scale not given: the % may be the effect or the level left

Row | Compound | LC50 [1] | Activity [2] | Activity [3] | Activity [4] | Activity [5] | Activity [6] | Activity [7]
1 | COc1c(-c2ccco2)coc(=O)c1C [CLADOBOTRIN] | 100 µg/mL (≈ 485 µM) | – | – | – | – | – | –
2 | CC(C)C[C@]12NC(=O)[C@@]3(O)C(=O)C[C@](C)(O[C@H]31)O2 [RUBROBRAMIDE] | – | inactive | inactive | inactive | 50% | 50% | 50%
